Test results published in US7741354B2, “Inhibitors of glutaminyl cyclase” (Probiodrug AG, priority 2006, dated 2010).

These compounds were tested against hQC (Homo sapiens, UniProt Q16769) (assay: Fluorometric (fluorescent) assay of hQC inhibition, IC50). Conditions: hQC inhibition; read-out: IC50.
Chain of hQC (Q16769 29-361): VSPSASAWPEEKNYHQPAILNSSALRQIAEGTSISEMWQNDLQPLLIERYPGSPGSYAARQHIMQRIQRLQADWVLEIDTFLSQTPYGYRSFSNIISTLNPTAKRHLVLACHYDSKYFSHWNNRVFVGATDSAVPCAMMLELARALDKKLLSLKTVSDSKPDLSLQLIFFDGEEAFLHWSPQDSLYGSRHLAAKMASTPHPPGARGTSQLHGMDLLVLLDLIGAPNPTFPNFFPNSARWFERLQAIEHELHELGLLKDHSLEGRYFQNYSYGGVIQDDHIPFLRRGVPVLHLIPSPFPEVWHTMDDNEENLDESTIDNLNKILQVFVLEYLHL
Type: biochemical
Method in brief: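 QC activity followed at 30° C via pyroglutamyl aminopeptidase-coupled release of fluorophore, using either H-Gln-βNA (0.2 mM; ex/em 320/410 nm; 0.2 M Tris/HCl pH 8.0, 20 mM EDTA) or H-Gln-AMC (ex/em 380/460 nm; 0.05 M Tris/HCl pH 8.0, 5 mM EDTA).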
Compound `CCOC(=O)C1CCCCC1n1nnnc1C(Nc1ccc2[nH]cnc2c1)c1csc2ccccc12` (stereo not drawn) [compound 145] has an IC50 of 1.3 µM.
`Brc1cc(Br)cc(C(Nc2ccc3[nH]cnc3c2)c2nnnn2-c2ccc(Oc3ccccc3)cc2)c1` (stereo not drawn) [compound 178, (1H-Benzoimidazol-5-yl)-{(3,5-dibromo-phenyl)-[1-(4-phenoxy-phenyl)-1H-tetrazol-5-yl]-methyl}-amine] showed an IC50 of 5.8 µM.
Work on `CN(C)c1ccc(C(Nc2ccc3[nH]cnc3c2)c2nnnn2Cc2cccnc2)cc1` (stereo not drawn) [compound 115, (1H-Benzoimidazol-5-yl)-[(4-dimethylamino-phenyl)-(1-pyridin-3-ylmethyl-1H-tetrazol-5-yl)-methyl]-amine] yielded an IC50 of 5.8 µM.
With `CC1(C)OCC(Cn2nnnc2C(Nc2ccc3[nH]cnc3c2)c2ccc3c(c2)OCO3)O1` (stereo not drawn) [compound 138, {Benzo[1,3]dioxol-5-yl-[1-(2,2-dimethyl-[1,3]dioxolan-4-ylmethyl)-1H-tetrazol-5-yl]-methyl}-(1H-benzoimidazol-5-yl)-amine] the IC50 was 9.4 µM.
Work on `Oc1ccc(C(Nc2ccc3[nH]cnc3c2)c2nnnn2Cc2ccc(Cl)cc2)cc1` (stereo not drawn) [compound 191, 4-{(1H-Benzoimidazol-5-ylamino)-[1-(4-chloro-benzyl)-1H-tetrazol-5-yl]-methyl}-phenol] yielded an IC50 of 3.1 µM.
With `C1=CCC(C(Nc2ccc3[nH]cnc3c2)c2nnnn2CCc2cccs2)CC1` (stereo not drawn) [compound 167, (1H-Benzoimidazol-5-yl)-{cyclohex-3-enyl-[1-(2-thiophen-2-yl-ethyl)-1H-tetrazol-5-yl]-methyl}-amine] the IC50 was 8.5 µM.
In the case of `Clc1ccc(Cn2nnnc2C(Nc2ccc3[nH]cnc3c2)c2ccc3nsnc3c2)cc1` (stereo not drawn) [compound 166], the IC50 is reported as 0.4 µM.
Work on `CCOC(=O)C1CCCCC1n1nnnc1C(Nc1ccc2[nH]cnc2c1)c1cc(C)cc(C)c1` (stereo not drawn) [compound 157] yielded an IC50 of 5.8 µM.
Work on `Fc1cc(C(Nc2ccc3[nH]cnc3c2)c2nnnn2CCc2cccs2)ccc1Cl` (stereo not drawn) [compound 207, (1H-Benzoimidazol-5-yl)-{(4-chloro-3-fluoro-phenyl)-[1-(2-thiophen-2-yl-ethyl)-1H-tetrazol-5-yl]-methyl}-amine] yielded an IC50 of 4 µM.
Work on `Brc1cc(Br)cc(C(Nc2ccc3[nH]cnc3c2)c2nnnn2Cc2ccccc2)c1` (stereo not drawn) [compound 190, (1H-Benzoimidazol-5-yl)-[(1-benzyl-1H-tetrazol-5-yl)-(3,5-dibromo-phenyl)-methyl]-amine] yielded an IC50 of 1.3 µM.
For `Clc1ccccc1Cn1nnnc1C(Nc1ccc2[nH]cnc2c1)c1ccc2nsnc2c1` (stereo not drawn) [compound 205], the IC50 was 2.2 µM.
Work on `CC(C)(C)OC(=O)Cn1nnnc1C(Nc1ccc2[nH]cnc2c1)c1ccc2c(c1)OCO2` (stereo not drawn) [compound 119, {5-[Benzo[1,3]dioxol-5-yl-(1H-benzoimidazol-5-ylamino)-methyl]-tetrazol-1-yl}-acetic acid tert-butyl ester] yielded an IC50 of 2.2 µM.
In the case of `CCc1ccc(C(Nc2ccc3[nH]cnc3c2)c2nnnn2Cc2ccccc2)s1` (stereo not drawn) [compound 133, (1H-Benzoimidazol-5-yl)-[(1-benzyl-1H-tetrazol-5-yl)-(5-ethyl-thiophen-2-yl)-methyl]-amine], the IC50 is reported as 3.1 µM.
For `O=c1c(C(Nc2ccc3[nH]cnc3c2)c2nnnn2CC2CCCO2)coc2ccccc12` (stereo not drawn) [compound 159, 3-{(1H-Benzoimidazol-5-ylamino)-[1-(tetrahydro-furan-2-ylmethyl)-1H-tetrazol-5-yl]-mthyl}-chromen-4-one], the IC50 was 9.4 µM.
Compound `O=C1CCCN1CCCn1nnnc1C(Nc1ccc2[nH]cnc2c1)c1cc(Br)cc(Br)c1` (stereo not drawn) [compound 176, 1-(3-{5-[(1H-Benzoimidazol-5-ylamino)-(3,5-dibromo-phenyl)-methyl]-tetrazol-1-yl}-propyl)-pyrrolidin-2-one] has an IC50 of 5.8 µM.
For `Brc1cc(Br)cc(C(Nc2ccc3[nH]cnc3c2)c2nnnn2-c2ccc3c(c2)OCCO3)c1` (stereo not drawn) [compound 179, (1H-Benzoimidazol-5-yl)-{(3,5-dibromo-phenyl)-[1-(2,3-dihydro-benzo[1,4]dioxin-6-yl)-1H-tetrazol-5-yl]-methyl}-amine], the IC50 was 4 µM.
Compound `c1csc(CCn2nnnc2C(Nc2ccc3[nH]cnc3c2)c2ccc3nsnc3c2)c1` (stereo not drawn) [compound 181] has an IC50 of 0.4 µM.
In the case of `CCOC(=O)C1CCCCC1n1nnnc1C(Nc1ccc2[nH]cnc2c1)c1ccc(OC)cc1` (stereo not drawn) [compound 184], the IC50 is reported as 5.8 µM.
`c1ccc(Oc2ccc(-n3nnnc3C(Nc3ccc4[nH]cnc4c3)c3ccc4c(c3)OCO4)cc2)cc1` (stereo not drawn) [compound 139, {Benzo[1,3]dioxol-5-yl-[1-(4-phenoxy-phenyl)-1H-tetrazol-5-yl]-methyl}-(1H-benzoimidazol-5-yl)-amine] showed an IC50 of 4 µM.
In the case of `CCOC(=O)C1CCCCC1n1nnnc1C(Nc1ccc2[nH]cnc2c1)c1ccc2c(c1)OCO2` (stereo not drawn) [compound 162], the IC50 is reported as 5.8 µM.

Same assay, conditions: purified compound from preparative synthesis; fluorescent assay; read-out: IC50 hQC
`C1=COC(C(NCCCn2ccnc2)c2nnnn2C2CCCC2)CC1` (stereo not drawn) [Compound 28, [(1-Cyclopentyl-1H-tetrazol-5-yl)-(3,4-dihydro-2H-pyran-2-yl)-methyl]-(3-imidazol-1-yl-propyl)-amine] was tested, and the IC50 was 3.47 µM.

Same assay, conditions: read-out: IC50
`Cn1nnnc1C(NCCCn1ccnc1)c1ccc2cccc(O)c2n1` (stereo not drawn) [compound 29, 2-[(3-imidazol-1-yl-propylamino)-(1-methyl-1H-tetrazol-5-yl)-methyl]-quinolin-8-ol] was tested, and the IC50 was 3.1 µM.
In the case of `C=CCn1nnnc1C(NCCCn1ccnc1)c1cc(C)c(C)cc1C` (stereo not drawn) [compound 48, [(1-Allyl-1H-tetrazol-5-yl)-(2,4,5-trimethyl-phenyl)-methyl]-(3-imidazol-1-yl-propyl)-amine], the IC50 is reported as 9.4 µM.
In the case of `Cc1ccc(C(NCCCn2ccnc2)c2nnnn2Cc2ccc(Cl)cc2)cc1C` (stereo not drawn) [compound 2, [[1-(4-Chloro-benzyl)-1H-tetrazol-5-yl]-(3,4-dimethyl-phenyl)-methyl]-(3-imidazol-1-yl-propyl)-amine], the IC50 is reported as 6.7 µM.
For `CN(C)CCn1nnnc1C(NCCCn1ccnc1)c1ccc2cccc(O)c2n1` (stereo not drawn) [compound 37, 2-[[1-(2-Dimethylamino-ethyl)-1H-tetrazol-5-yl]-(3-imidazol-1-yl-propylamino)-methyl]-quinolin-8-ol], the IC50 was 4.9 µM.
Compound `c1cn(CCCNC(c2ccc3[nH]ccc3c2)c2nnnn2C2CCCC2)cn1` (stereo not drawn) [compound 26] has an IC50 of 3.1 µM.
With `CC1=CCCC[C@@H]1C(NCCCn1ccnc1)c1nnnn1C1CCCC1` (stereo partly drawn) [compound 27, [(1-Cyclopentyl-1H-tetrazol-5-yl)-((S)-2-methyl-cyclohex-2-enyl)-methyl]-(3-imidazol-1-yl-propyl)-amine] the IC50 was 6.7 µM.
Compound `Fc1ccc2c(C(Nc3ccc4[nH]cnc4c3)c3nnnn3C3CCCCC3)c[nH]c2c1` (stereo not drawn) [compound 81, (1H-Benzoimidazol-5-yl)-[(1-cyclohexyl-1H-tetrazol-5-yl)-(6-fluoro-1H-indol-3-yl)-methyl]-amine] has an IC50 of 3.1 µM.
`COC(=O)Cn1nnnc1C(NCCCn1ccnc1)c1cc(C)ccc1O` (stereo not drawn) [compound 51, {5-[(2-Hydroxy-5-methyl-phenyl)-(3-imidazol-1-yl-propylamino)-methyl]-tetrazol-1-yl}-acetic methyl ester] was tested, and the IC50 was 2.2 µM.
In the case of `COCCCn1nnnc1C(NCCCn1ccnc1)c1cc(O)ccc1C` (stereo not drawn) [compound 33, 3-{(3-Imidazol-1-yl-propylamino)-[1-(3-methoxy-propyl)-1H-tetrazol-5-yl]-methyl}-4-methyl-phenol], the IC50 is reported as 4 µM.
With `Cn1nnnc1C(NCCCn1ccnc1)c1ccc2[nH]ccc2c1` (stereo not drawn) [compound 30, (3-Imidazol-1-yl-propyl)-[(1H-indol-5-yl)-(1-methyl-1H-tetrazol-5-yl)-methyl]-amine] the IC50 was 4 µM.
In the case of `Cc1ccc2c(C(Nc3ccc4[nH]cnc4c3)c3nnnn3CC3CCCO3)c[nH]c2c1` (stereo not drawn) [compound 80, (1H-Benzoimidazol-5-yl)-{(6-methyl-1H-indol-3-yl)-[1-(tetrahydro-furan-2-ylmethyl)-1H-tetrazol-5-yl]-methyl}-amine], the IC50 is reported as 6.7 µM.
`c1cn(CCCNC(c2ccc3[nH]ccc3c2)c2nnnn2C[C@@H]2CCCO2)cn1` (stereo partly drawn) [compound 13, (3-Imidazol-1-yl-propyl)-((1H-indol-5-yl)-{1-[(S)-1-(tetrahydro-furan-2-yl)methyl]-1H-tetrazol-5-yl}-methyl)-amine] gave an IC50 of 6.7 µM.
`CC(c1ccccc1)C(Nc1ccc2[nH]cnc2c1)c1nnnn1CC1CCCO1` (stereo not drawn) [compound 100, (1H-Benzoimidazol-5-yl)-{2-phenyl-1-[1-(tetrahydro-furan-2-ylmethyl)-1H-tetrazol-5-yl]-propyl}-amine] showed an IC50 of 7.6 µM.
Compound `C=CCn1nnnc1C(NCCCn1ccnc1)c1ccc2ccccc2n1` (stereo not drawn) [compound 47, [(1-Allyl-1H-tetrazol-5-yl)-quinolin-2-yl-methyl]-(3-imidazol-1-yl-propyl)-amine] has an IC50 of 3.1 µM.
Compound `c1ccc2oc(C(NCCCn3ccnc3)c3nnnn3C[C@@H]3CCCO3)cc2c1` (stereo partly drawn) [compound 15, (Benzofuran-2-yl-{1-[(S)-1-(tetrahydro-furan-2-yl)methyl]-1H-tetrazol-5-yl}-methyl)-(3-imidazol-1-yl-propyl)-amine] has an IC50 of 6.7 µM.
Compound `CCCCn1nnnc1C(NCCCn1ccnc1)c1cc(C)ccc1O` (stereo not drawn) [compound 19, 2[(1-Butyl-1H-tetrazol-5-yl)-(3-imidazol-1-yl-propylamino)-mehtyl]-4-methyl-phenol] has an IC50 of 2.2 µM.
In the case of `C1=COC(C(NCCCn2ccnc2)c2nnnn2C2CCCC2)CC1` (stereo not drawn) [Compound 28, [(1-Cyclopentyl-1H-tetrazol-5-yl)-(3,4-dihydro-2H-pyran-2-yl)-methyl]-(3-imidazol-1-yl-propyl)-amine], the IC50 is reported as 0.4 µM.
Compound `c1ccc2oc(C(Nc3ccc4[nH]cnc4c3)c3nnnn3CC3CCCO3)cc2c1` (stereo not drawn) [compound 101, {Benzofuran-2-yl-[1-(tetrahydro-furan-2-ylmethyl)-1H-tetrazol-5-yl]-methyl}-(1H-benzoimidazol-5-yl)-amine] has an IC50 of 4.9 µM.
`CC(Cc1ccc2c(c1)OCO2)C(Nc1ccc2[nH]cnc2c1)c1nnnn1Cc1ccccc1Cl` (stereo not drawn) [compound 113] showed an IC50 of 3.1 µM.
Compound `c1ccc2nc(C(NCCCn3ccnc3)c3nnnn3C3CC3)ccc2c1` (stereo not drawn) [compound 70, [(1-Cyclopropyl-1H-tetrazol-5-yl)-quinolin-2-yl-methyl]-(3-imidazol-1-yl-propyl)-amine] has an IC50 of 5.8 µM.
In the case of `CC(Cc1ccc2c(c1)OCO2)C(Nc1ccc2[nH]cnc2c1)c1nnnn1CC1CCCO1` (stereo not drawn) [compound 93, {3-Benzo[1,3]dioxol-5-yl-2-methyl-1-[1-(tetrahydro-furan-2-ylmethyl)-1H-tetrazol-5-yl]-propyl}-(1H-benzoimidazol-5-yl)-amine], the IC50 is reported as 7.6 µM.
